From patent US11147795B2, “Neuroprotective compounds and methods of use” (ARIZONA BOARD OF REGENTS ON BEHALF OF THE UNIVERSITY OF …, priority 2014, dated 2021)

System: larvae expressing TDP-43 in motor neurons
Test: Larval turning assay (locomotor function)
Format: in vivo, Drosophila
Settings: for locomotor function measured by larval turning assays: TDP-43 expressed in motor neurons, FIGS. 1-3; for locomotor function: Student's t-test, N>20 larvae/genotype
Protocol: Drosophila genetics. TDP-43 was expressed in motor neurons using the GAL4-UAS bipartite expression system. D42 GAL4 was used as an expression driver and UAS-TDP-43 YFP trasgenics were used as responder lines (Estes, et al., 2011, Hum. Mol. Genet).
Locomotor function. Locomotion was assessed using quantitative larval turning assays. Crosses were carried out at 25° C. and wandering third instar larvae were placed on a grape juice plate at room temperature. After a 30 second acclimation period, larvae were gently turned ventral side up. They were observed until they turned over (dorsal side up) and began making a forward motion. The time it took to complete this task was recorded for at least 20 larvae per genotype.
Statistical analyses. Student's t-tests were performed to determine statistical significance.

[1] = larvae expressing TDPG298S in motor neurons
[2] = larvae expressing TDPWT in motor neurons

Compound	locomotor function measured by larval turning assays	locomotor function [1]	locomotor function [2]
CCOC(=O)C1=CCN([S@@+]([O-])C(C)(C)C)[C@H]1c1ccsc1 [CH-III-31]	significant improvement of locomotor function	improves locomotor function	improves locomotor function
COc1cc2c(C(=O)C(F)(F)F)c(C(F)(F)F)[nH]c2cc1F [EV-3-298]	significant improvement of locomotor function	improves locomotor function	improves locomotor function
CCOC(=O)C1=CCN([S@+]([O-])C(C)(C)C)[C@@H]1C[C@@H](C)CCC=C(C)C [CH-I-108]	significant improvement of locomotor function	improves locomotor function	improves locomotor function
